target: T1, PfTMK (Plasmodium falciparum thymidylate kinase) (Plasmodium falciparum, UniProt Q8I4S1); test: NADH-coupled (pyruvate kinase/lactate dehydrogenase) spectrophotometric TMP kinase assay, initial rates; assay type: biochemical
T1 construct: gene TMK; natural dimer
T1 sequence (Q8I4S1 1-210): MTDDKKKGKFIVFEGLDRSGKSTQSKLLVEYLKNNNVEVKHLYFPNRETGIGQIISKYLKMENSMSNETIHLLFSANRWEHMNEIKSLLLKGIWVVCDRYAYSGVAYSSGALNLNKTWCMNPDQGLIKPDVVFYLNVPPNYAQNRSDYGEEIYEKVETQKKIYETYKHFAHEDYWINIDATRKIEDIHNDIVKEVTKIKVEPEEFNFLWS
Source text: NADH-coupled (pyruvate kinase/lactate dehydrogenase) spectrophotometric TMP kinase assay, initial rates on PfTMK (Plasmodium falciparum thymidylate kinase)

Compound | Ki
Nc1ncn([C@H]2C[C@H](OP(=O)(O)OC[C@H]3O[C@@H](n4cnc5c(=O)[nH]c(N)nc54)C[C@@H]3O)[C@@H](CO)O2)c(=O)n1 [Guadecitabine] | 90 µM
Nc1nc2c(ncn2[C@@H]2O[C@H](COP(=O)(O)OP(=O)(O)O[C@H]3O[C@H](CO)[C@@H](O)[C@H](O)[C@@H]3O)[C@@H](O)[C@H]2O)c(=O)[nH]1 [Guanosine diphosphate mannose] | > 1000 µM
Nc1nc2c(ncn2[C@H]2C[C@H](O)[C@@H](CO)O2)c(=O)[nH]1 [deoxyguanosine] | 270 µM
Nc1nc2c(nc(O)n2[C@H]2C[C@H](O)[C@@H](CO)O2)c(=O)[nH]1 [8-Hydroxy-2'-deoxyguanosine] | 180 µM
